Here are results for 15 compounds from the SangsterLogP compilation.

The term logD denotes the decadic logarithm of the distribution of all forms, ionised or not, between an organic phase and buffer at a given pH.

This data set in a line: method code SF-HPLC, from DOI: 10.1080/10826079808000494. The following applies: pH 6.9.
`CCOC(=O)C1=C(C)NC(C)=C(C(=O)OC)C1c1cc(OC)c(OC)c(OC)c1` (stereo not given) gave a logD of 2.99. Under `CCOC(=O)C1=C(C)NC(C)=C(C(=O)OC)C1c1ccccc1` (stereo not given) stands 3.74; under `COC(=O)C1=C(C)NC(C)=C(C(=O)OCc2cccnc2)C1c1cccc2c1OCO2` (stereo not given), 3.21; under `COC(=O)C1=C(C)NC(C)=C(C(=O)OC)C1c1cccc2c1OCO2`, 3.06. For `CCOC(=O)C1=C(C)NC(C)=C(C(=O)OC)C1c1cc(OC)cc(OC)c1` (stereo not given) the value was 3.68. For `CCOC(=O)C1=C(C)NC(C)=C(C(=O)OC(C)C)C1c1cccc2c1OCO2` (stereo not given) the value was 4.31; for `CCOC(=O)C1=C(C)NC(C)=C(C(=O)OCC)C1c1cccc2c1OCO2`, 3.92.

Regarding `CCOC(=O)C1=C(C)NC(C)=C(C(=O)OC)C1c1cc(OC)c(O)c(OC)c1` (stereo not given), the logD amounted to 2.43.

With `CCOC(=O)C1=C(C)NC(C)=C(C(=O)OC)C1c1ccc(OC)c(OC)c1` (stereo not given), the logD was determined as 3.2. `CCOC(=O)C1=C(C)NC(C)=C(C(=O)OC)C1c1cccc2c1OCCO2` (stereo not given): the logD was 3.17. Under `CCOC(=O)C1=C(C)NC(C)=C(C(=O)OC)C1c1ccccc1OCOC` (stereo not given) stands 3.38. For `CCOC(=O)C1=C(C)NC(C)=C(C(=O)OC)C1c1cccc(OC)c1OC` (stereo not given) the value was 3.18.

In turn, `CC1=C(C#N)C(C)(C)C(C#N)=C(C)N1` displayed a logD of 2.47. As to `COC(=O)C1=C(C)NC(C)=C(C(=O)OC(C)C)C1c1cccc2c1OCO2` (stereo not given), the logD came to 3.75. For `COCCOC(=O)C1=C(C)NC(C)=C(C(=O)OC(C)C)C1c1cccc2c1OCO2` (stereo not given) the value was 3.54.
